Patent US9340554B2, “IRAK inhibitors and uses thereof” (Nimbus Iris, Inc., priority 2011, dated 2016)
Like-named read-outs stand apart in the source and are kept apart here.

Target: T1, IRAK4 (Homo sapiens, UniProt Q9NWZ3)
T1 construct: purchased CARNA Bioscience 09-145
T1 sequence (Q9NWZ3 1-460): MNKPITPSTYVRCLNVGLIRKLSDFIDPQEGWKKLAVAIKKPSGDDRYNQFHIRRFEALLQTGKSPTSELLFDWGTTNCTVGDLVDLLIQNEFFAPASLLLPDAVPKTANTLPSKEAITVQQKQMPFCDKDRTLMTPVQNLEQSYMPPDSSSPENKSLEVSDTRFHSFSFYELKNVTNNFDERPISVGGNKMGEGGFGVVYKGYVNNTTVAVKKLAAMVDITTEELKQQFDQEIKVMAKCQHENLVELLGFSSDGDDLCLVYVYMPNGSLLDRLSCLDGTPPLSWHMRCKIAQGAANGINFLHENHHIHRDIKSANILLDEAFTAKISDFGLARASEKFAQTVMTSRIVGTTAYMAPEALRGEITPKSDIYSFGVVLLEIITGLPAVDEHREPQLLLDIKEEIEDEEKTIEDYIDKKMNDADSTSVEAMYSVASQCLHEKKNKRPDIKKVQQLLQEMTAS
Experiment: IRAK-4 activity inhibition assay (Caliper, Peptide 8, 37 μM ATP)
Type: biochemical
Conditions: 28° C. 40 minutes
Description: A 1× kinase base buffer was prepared from 50 mM HEPES, pH 7.5 and 0.0015% Brij-35. A stop buffer was prepared from 100 mM HEPES, pH 7.5, 0.015% Brij-35, 0.2% Coating Reagent #3, and 50 mM EDTA.
Test compound was diluted to 50× of the final desired highest inhibitor concentration in reaction by 100% DMSO. 100 ul of this compound dilution was transferred to a well in a 96-well plate.
Test compound was serially diluted by transferring 30 μl to 60 μl of 100% DMSO in the next well and so forth for a total of 10 concentrations. 100 μl of 100% DMSO was added to two empty wells for no compound control and no enzyme control in the same 96-well plate.
A new 96-well plate was marked as intermediate plate. 5 μl of compound serial dilution was transferred from source plate to the corresponding wells of the intermediate plate. 45 μl of 1× kinase base buffer (KB buffer) was added to each well of the intermediate plate. The intermediate plate was placed for 10 min on a shaker.
5 μl of each well was transferred from the 96-well intermediate plate to a 384-well plate in duplicates. […] A2 of the 96-well plate is transferred to A3 and A4 of the 384-well plate, and so on.
IRAK4 and DTT in 1× kinase base buffer was added.
Assay plate already contained 5 μl of compound in 10% DMSO. Added 10 μl of 2.5× enzyme solution to each well of the 384-well assay plate, except no enzyme control wells. […] Added 10 μl of 1× kinase base buffer to no enzyme control wells in the assay plate. Incubated at room temperature for 10 min.
Added 10 μl of 2.5× peptide solution to each well of the 384-well assay plate. […] Incubated at 28° C. for 40 minutes. Added 25 μl of stop buffer to stop reaction. Collected data on Caliper.
Copied conversion % data from Caliper program. Converted conversion % values to percent inhibition values. Percent inhibition=(max−conversion %)/(max−min)*100, where “max” means the conversion % of DMSO control and “min” means the conversion % of no enzyme control.
The compound numbers correspond to the compound numbers in Table 1. […] “NA” stands for “not assayed.”

[1] = 3.5 nM IRAK4, 1.5 μM Peptide 8, 37 μM ATP, read-out: IRAK-4 activity inhibition IC50

| SMILES | IC50 [1] | IC50 (IRAK-4 activity inhibition IC50, 3.5 nM IRAK4, 1.5 μM Peptide 8, 37 μM ATP) |
| --- | --- | --- |
| CC(=O)N[C@H]1CC[C@H](Nc2ncnc3sc4c(c23)CCC4)CC1 [Compound I-11, N-(trans-4-((6,7-dihydro-5H-cyclopenta[4,5]thieno[2,3-d]pyrimidin-4-yl)amino)cyclohexyl)acetamide] | 5 to 20 µM | – |
| CC1CCc2sc3ncnc(NC4CCCC(O)C4)c3c2C1 (mixture of isomers) [Compound I-35, 3-((6-methyl-5,6,7,8-tetrahydrobenzo[4,5]thieno[2,3-d]pyrimidin-4-yl)amino)cyclohexanol] | 5 to 20 µM | – |
| c1nc(NCC2CCNCC2)c2c3c(sc2n1)CCC3 [Compound I-59] | 20 to 50 µM | – |
| CN[C@H]1CC[C@H](Oc2ncnc3sc4c(c23)CCC4)CC1 [Compound I-66, trans-4-((6,7-dihydro-5H-cyclopenta[4,5]thieno[2,3-d]pyrimidin-4-yl)oxy)-N-methylcyclohexanamine] | < 5 µM | – |
| O[C@@H]1CCC[C@H](Nc2ncnc3sc4c(c23)CCC4)C1 (relative stereo) [Compound I-21, cis-3-((6,7-dihydro-5H-cyclopenta[4,5]thieno[2,3-d]pyrimidin-4-yl)amino)cyclohexanol] | 5 to 20 µM | – |
| CN(Cc1cnccn1)[C@H]1CC[C@H](Nc2ncnc3sc4c(c23)CCC4)CC1 [Compound I-105] | < 5 µM | – |
| CC1CCc2sc3ncnc(N[C@H]4CC[C@H](O)CC4)c3c2C1 (relative stereo) [Compound I-37, trans-4-((6-methyl-5,6,7,8-tetrahydrobenzo[4,5]thieno[2,3-d]pyrimidin-4-yl)amino)cyclohexanol] | 5 to 20 µM | – |
| C[C@@H]1CCc2sc3ncnc(N[C@H]4CC[C@H](N(C)C)CC4)c3c2C1 [Compound I-56, trans-N^1,N^1-dimethyl-N^4-((R)-6-methyl-5,6,7,8-tetrahydrobenzo[4,5]thieno[2,3-d]pyrimidin-4-yl)cyclohexane-1,4-diamine] | < 5 µM | – |
| C[C@@H]1CCc2sc3ncnc(N4CCC(C(N)=O)CC4)c3c2C1 [Compound I-45] | 5 to 20 µM | – |
| CCN[C@H]1CC[C@H](Nc2ncnc3sc4c(c23)CCC4)CC1 [Compound I-70] | < 5 µM | – |
| CCC1CCc2c(sc3ncnc(N4CCN(C)CC4)c23)C1 (stereo not shown) [Compound I-16] | 5 to 20 µM | – |
| CN(CC(=O)NCc1ccccc1)[C@H]1CC[C@H](Nc2ncnc3sc4c(c23)CCC4)CC1 [Compound I-123, N-benzyl-2-(((1r,4r)-4-((6,7-dihydro-5H-cyclopenta[4,5]thieno[2,3-d]pyrimidin-4-yl)amino)cyclohexyl)(methyl)amino)acetamide] | < 5 µM | – |
| CN1CCC(COc2ncnc3sc4c(c23)CCC4)CC1 [Compound I-64] | 20 to 50 µM | – |
| CC1(C)CCc2sc3ncnc(N[C@H]4CC[C@H](O)CC4)c3c2C1 [Compound I-43, trans-4-((6,6-dimethyl-5,6,7,8-tetrahydrobenzo[4,5]thieno[2,3-d]pyrimidin-4-yl)amino)cyclohexanol] | 5 to 20 µM | – |
| Cc1sc2ncnc(N3CCC(C(=O)Nc4cc(Cl)ccc4Cl)CC3)c2c1C [Compound I-32] | 5 to 20 µM | – |
| c1nc(NCCN2CCNCC2)c2c3c(sc2n1)CCC3 [Compound I-147, N-(2-(piperazin-1-yl)ethyl)-6,7-dihydro-5H-cyclopenta[4,5]thieno[2,3-d]pyrimidin-4-amine] | > 50 µM | – |
| CNCC1CCN(c2ncnc3sc4c(c23)CCC4)CC1 [Compound I-62] | 5 to 20 µM | – |
| CN[C@H]1CC[C@H](Nc2ncnc3sc4c(c23)CCCC4)CC1 [Compound I-53, trans-N^1-methyl-N4-(5,6,7,8-tetrahydrobenzo[4,5]thieno[2,3-d]pyrimidin-4-yl)cyclohexane-1,4-diamine] | < 5 µM | – |
| COc1ccc(OCCN2CCN(c3ncnc4sc5c(c34)CCCC5)CC2)cc1 [Compound I-27] | 5 to 20 µM | – |
| O=C(O)CN[C@H]1CC[C@H](Nc2ncnc3sc4c(c23)CCC4)CC1 [Compound I-65, 2-((trans-4-((6,7-dihydro-5H-cyclopenta[4,5]thieno[2,3-d]pyrimidin-4-yl)amino)cyclohexyl)amino)acetic acid] | 5 to 20 µM | – |
| CN(CCCc1ccccc1)[C@H]1CC[C@H](Oc2ncnc3sc4c(c23)CCC4)CC1 [Compound I-116, N-methyl-N-(3-phenylpropyl)-4-[7-thia-9,11-diazatricyclo[6.4.0.0^[2,6]]dodeca-1(8),2(6),9,11-tetraen-12-yloxy]cyclohexan-1-amine] | < 5 µM | – |
| COCCN(C)[C@H]1CC[C@H](Nc2ncnc3sc4c(c23)CCC4)CC1 [Compound I-169, 1-N-(2-methoxyethyl)-1-N-methyl-4-N-[7-thia-9,11-diazatricyclo[6.4.0.0^[2,6]]dodeca-1(8),2(6),9,11-tetraen-12-yl]cyclohexane-1,4-diamine] | < 5 µM | – |
| c1nc(N[C@H]2CC[C@H](N3CCC3)CC2)c2c3c(sc2n1)CCC3 [Compound I-158, N-[4-(azetidin-1-yl)cyclohexyl]-7-thia-9,11-diazatricyclo[6.4.0.0^[2,6]]dodeca-1(8),2(6),9,11-tetraen-12-amine] | < 5 µM | – |

The next lines start with the values.

| IC50 [1] | IC50 (IRAK-4 activity inhibition IC50, 3.5 nM IRAK4, 1.5 μM Peptide 8, 37 μM ATP) | SMILES |
| --- | --- | --- |
| < 5 µM | – | CN[C@H]1CC[C@H](N(C)c2ncnc3sc4c(c23)CCC4)CC1 [Compound I-146, (1r,4r)-N1-(6,7-dihydro-5H-cyclopenta[4,5]thieno[2,3-d]pyrimidin-4-yl)-N1,N4-dimethylcyclohexane-1,4-diamine] |
| < 5 µM | – | CC1CCc2sc3ncnc(N[C@H]4CC[C@H](N(C)C)CC4)c3c2C1 (stereo partly drawn) [Compound I-54, trans-N^1,N^1-dimethyl-N^4-(6-methyl-5,6,7,8-tetrahydrobenzo[4,5]thieno[2,3-d]pyrimidin-4-yl)cyclohexane-1,4-diamine] |
| 5 to 20 µM | – | CCC1CCc2c(sc3ncnc(N4CCC(C(N)=O)CC4)c23)C1 (stereo not shown) [Compound I-17] |
| – | 20 to 50 µM | C[N+](C)(C)[C@H]1CC[C@H](Nc2ncnc3sc4c(c23)CCC4)CC1 [Compound I-139, (1r,4r)-4-((6,7-dihydro-5H-cyclopenta[4,5]thieno[2,3-d]pyrimidin-4-yl)amino)-N,N,N-trimethylcyclohexanaminium iodide] |
| 20 to 50 µM | – | Cc1sc2ncnc(N3CCC(C(N)=O)CC3)c2c1C [Compound I-18] |
| < 5 µM | – | c1ccc(CCN[C@H]2CC[C@H](Nc3ncnc4sc5c(c34)CCC5)CC2)cc1 [Compound I-115, 1-N-(2-phenylethyl)-4-N-[7-thia-9,11-diazatricyclo[6.4.0.0^[2,6]]dodeca-1(12),2(6),8,10-tetraen-12-yl]cyclohexane-1,4-diamine] |
| < 5 µM | – | CN(CC(=O)Nc1ccccc1)[C@H]1CC[C@H](Nc2ncnc3sc4c(c23)CCC4)CC1 [Compound I-114, 2-[methyl[4-([7-thia-9,11-diazatricyclo[6.4.0.0^[2,6]]dodeca-1(8),2(6),9,11-tetraen-12-yl]amino)cyclohexyl]amino]-N-phenylacetamide] |
| < 5 µM | – | CCN(CC)[C@H]1CC[C@H](Nc2ncnc3sc4c(c23)CCC4)CC1 [Compound I-72, trans-N^1-(6,7-dihydro-5H-cyclopenta[4,5]thieno[2,3-d]pyrimidin-4-yl)-N^4,N^4-diethylcyclohexane-1,4-diamine] |
| < 5 µM | – | CN(C1CCOCC1)[C@H]1CC[C@H](Nc2ncnc3sc4c(c23)CCC4)CC1 [Compound I-132, 1-N-methyl-1-N-(oxan-4-yl)-4-N-[7-thia-9,11-diazatricyclo[6.4.0.0[2,6]]dodeca-1(8),2(6),9,11-tetraen-12-yl]cyclohexane-1,4-diamine] |
| < 5 µM | – | CCC1CCc2c(sc3ncnc(N4CCC(C(=O)NO)CC4)c23)C1 (stereo not shown) [Compound I-14] |
| < 5 µM | – | O=C(CN[C@H]1CC[C@H](Oc2ncnc3sc4c(c23)CCC4)CC1)N1CCCC1 [Compound I-135, trans-1-(pyrrolidin-1-yl)-2-[(4-[7-thia-9,11-diazatricyclo[6.4.0.0[2,6]]dodeca-1(8),2(6),9,11-tetraen-12-yloxy]cyclohexyl)amino]ethan-1-one] |
